Data published in the OligoGym collection.
“And” between values parts separate entries of the source, which are not always exact repeats. Equal values may be shown once. HELM strings list units from the 5' end as sugar, base in round brackets, then linkage (d deoxyribose, r ribose, m 2'-O-methyl, p phosphodiester). Methylation of C is not given here. [moe] = 2'-O-(2-methoxyethyl) (MOE); [cEt] = constrained ethyl (cEt); [sp] = phosphorothioate linkage

Molecular target: HBV
Details: ASO

Row | Substance | target mRNA inhibition (HepG2, 0.07 µM) | other results
1 | RNA1{[moe](C)[sp].[cEt](A)[sp].[cEt](A)[sp].d(T)[sp].d(T)[sp].d(T)[sp].d(A)[sp].d(T)[sp].d(G)[sp].d(C)[sp].d(C)[sp].d(T)[sp].d(A)[sp].[cEt](C)[sp].[cEt](A)[sp].[moe](G)}$$$$V2.0 | 49% and 41% | 
2 | RNA1{[moe](C)[sp].[cEt](A)[sp].d(A)[sp].d(T)[sp].d(T)[sp].d(T)[sp].d(A)[sp].d(T)[sp].d(G)[sp].d(C)[sp].d(C)[sp].d(T)[sp].[cEt](A)[sp].[moe](C)[sp].[cEt](A)[sp].[moe](G)}$$$$V2.0 | 35% and 34% | 
3 | RNA1{[moe](C)[sp].[cEt](T)[sp].d(G)[sp].d(G)[sp].d(A)[sp].d(G)[sp].d(C)[sp].d(C)[sp].d(A)[sp].d(C)[sp].d(C)[sp].d(A)[sp].[cEt](G)[sp].[moe](C)[sp].[cEt](A)[sp].[moe](G)}$$$$V2.0 | 56% | 
4 | RNA1{[moe](C)[sp].[moe](A)[sp].[moe](A)[sp].[moe](T)[sp].[moe](T)[sp].[moe](T)[sp].d(A)[sp].d(T)[sp].d(G)[sp].d(C)[sp].d(C)[sp].d(T)[sp].d(A)[sp].d(C)[sp].d(A)[sp].[moe](G)[sp].[moe](C)}$$$$V2.0 | 26% and 22% | 
5 | RNA1{[moe](C)[sp].[moe](A)[sp].[moe](A)[sp].[moe](T)[sp].[moe](T)[sp].d(T)[sp].d(A)[sp].d(T)[sp].d(G)[sp].d(C)[sp].d(C)[sp].d(T)[sp].d(A)[sp].d(C)[sp].[moe](A)[sp].[moe](G)}$$$$V2.0 | 24% and 11% | 
6 | RNA1{[moe](C)[sp].[moe](A)[sp].[moe](A)[sp].[moe](T)[sp].d(T)[sp].d(T)[sp].d(A)[sp].d(T)[sp].d(G)[sp].d(C)[sp].d(C)[sp].d(T)[sp].d(A)[sp].[moe](C)[sp].[moe](A)[sp].[moe](G)}$$$$V2.0 | 19% and 13% | 
7 | RNA1{[moe](C)[sp].[moe](A)[sp].[moe](A)[sp].d(T)[sp].d(T)[sp].d(T)[sp].d(A)[sp].d(T)[sp].d(G)[sp].d(C)[sp].d(C)[sp].d(T)[sp].[moe](A)[sp].[moe](C)[sp].[moe](A)[sp].[moe](G)[sp].[moe](C)}$$$$V2.0 | 33% and 41% | 
8 | RNA1{[moe](C)[sp].[moe](A)[sp].[moe](A)[sp].d(T)[sp].d(T)[sp].d(T)[sp].d(A)[sp].d(T)[sp].d(G)[sp].d(C)[sp].d(C)[sp].d(T)[sp].[moe](A)[sp].[moe](C)[sp].[moe](A)[sp].[moe](G)}$$$$V2.0 | 17% and 22% | 
9 | RNA1{[moe](C)[sp].[moe](A)[sp].[moe](C)[sp].[moe](T)[sp].[moe](A)[sp].d(G)[sp].d(T)[sp].d(A)[sp].d(A)[sp].d(A)[sp].d(C)[sp].d(T)[sp].d(G)[sp].d(A)[sp].[moe](G)[sp].[moe](C)[sp].[moe](C)}$$$$V2.0 | 71% and 62% | 
10 | RNA1{[moe](C)[sp].[moe](A)[sp].[moe](C)[sp].[moe](T)[sp].d(A)[sp].d(G)[sp].d(T)[sp].d(A)[sp].d(A)[sp].d(A)[sp].d(C)[sp].d(T)[sp].d(G)[sp].[moe](A)[sp].[moe](G)[sp].[moe](C)[sp].[moe](C)}$$$$V2.0 | 61% and 54% | 
11 | RNA1{[moe](C)[sp].[moe](A)[sp].d(A)[sp].d(T)[sp].d(T)[sp].d(T)[sp].d(A)[sp].d(T)[sp].d(G)[sp].d(C)[sp].d(C)[sp].[moe](T)[sp].[moe](A)[sp].[moe](C)[sp].[moe](A)[sp].[moe](G)[sp].[moe](C)}$$$$V2.0 | 53% and 46% | 
12 | RNA1{[moe](C)[sp].[moe](A)[sp].d(G)[sp].d(A)[sp].d(G)[sp].d(G)[sp].d(T)[sp].d(G)[sp].d(A)[sp].d(A)[sp].d(G)[sp].[moe](C)[sp].[moe](G)[sp].[moe](A)[sp].[moe](A)[sp].[moe](G)[sp].[moe](T)}$$$$V2.0 | 61% | 
13 | RNA1{[moe](C)[sp].[moe](C)[sp].[moe](A)[sp].[moe](A)[sp].[moe](T)[sp].d(T)[sp].d(T)[sp].d(A)[sp].d(T)[sp].d(G)[sp].d(C)[sp].d(C)[sp].d(T)[sp].d(A)[sp].[moe](C)[sp].[moe](A)}$$$$V2.0 | 15% and 6% | 
14 | RNA1{[moe](C)[sp].[moe](C)[sp].[moe](G)[sp].[moe](C)[sp].[moe](A)[sp].[moe](G)[sp].d(T)[sp].d(A)[sp].d(T)[sp].d(G)[sp].d(G)[sp].d(A)[sp].d(T)[sp].d(C)[sp].d(G)[sp].[moe](G)[sp].[moe](C)}$$$$V2.0 | 90% and 66% | 
15 | RNA1{[moe](C)[sp].[moe](C)[sp].[moe](G)[sp].[moe](C)[sp].[moe](A)[sp].d(G)[sp].d(T)[sp].d(A)[sp].d(T)[sp].d(G)[sp].d(G)[sp].d(A)[sp].d(T)[sp].d(C)[sp].[moe](G)[sp].[moe](G)}$$$$V2.0 | 75% and 71% | 
16 | RNA1{[moe](C)[sp].[moe](C)[sp].[moe](G)[sp].d(C)[sp].d(A)[sp].d(G)[sp].d(T)[sp].d(A)[sp].d(T)[sp].d(G)[sp].d(G)[sp].d(A)[sp].d(T)[sp].[cEt](C)[sp].[cEt](G)[sp].[cEt](G)}$$$$V2.0 | 72% and 79% | 

Row | Substance | target mRNA inhibition (HepG2, 0.07 µM) | other results
17 | RNA1{[moe](C)[sp].[moe](C)[sp].d(A)[sp].d(C)[sp].d(T)[sp].d(G)[sp].d(A)[sp].d(A)[sp].d(C)[sp].d(A)[sp].d(A)[sp].[moe](A)[sp].[moe](T)[sp].[moe](G)[sp].[moe](G)[sp].[moe](C)}$$$$V2.0 | 74% and 70% | target mRNA inhibition (HepG2, 0.0092593 µM): 8%; target mRNA inhibition (HepG2, 0.0277778 µM): 27%; target mRNA inhibition (HepG2, 0.0833333 µM): 54%; target mRNA inhibition (HepG2, 0.25 µM): 76%
18 | RNA1{[moe](C)[sp].[moe](G)[sp].[moe](A)[sp].d(A)[sp].d(C)[sp].d(C)[sp].d(A)[sp].d(C)[sp].d(T)[sp].d(G)[sp].d(A)[sp].d(A)[sp].[moe](C)[sp].[moe](A)[sp].[moe](A)[sp].[moe](A)[sp].[moe](T)}$$$$V2.0 | 60% and 50% | 
19 | RNA1{[moe](C)[sp].[moe](G)[sp].[moe](A)[sp].d(A)[sp].d(C)[sp].d(C)[sp].d(A)[sp].d(C)[sp].d(T)[sp].d(G)[sp].d(A)[sp].d(A)[sp].d(C)[sp].[cEt](A)[sp].[cEt](A)[sp].[cEt](A)}$$$$V2.0 | 41% and 54% | 
20 | RNA1{[moe](C)[sp].[moe](G)[sp].[moe](C)[sp].[moe](A)[sp].[moe](G)[sp].[moe](T)[sp].d(A)[sp].d(T)[sp].d(G)[sp].d(G)[sp].d(A)[sp].d(T)[sp].d(C)[sp].d(G)[sp].d(G)[sp].[moe](C)[sp].[moe](A)}$$$$V2.0 | 83% and 70% | target mRNA inhibition (HepG2, 0.0092593 µM): 10%; target mRNA inhibition (HepG2, 0.0277778 µM): 35%; target mRNA inhibition (HepG2, 0.0833333 µM): 44%; target mRNA inhibition (HepG2, 0.25 µM): 76%
21 | RNA1{[moe](C)[sp].[moe](G)[sp].[moe](C)[sp].d(A)[sp].d(G)[sp].d(T)[sp].d(A)[sp].d(T)[sp].d(G)[sp].d(G)[sp].d(A)[sp].d(T)[sp].[moe](C)[sp].[moe](G)[sp].[moe](G)[sp].[moe](C)}$$$$V2.0 | 84% and 68% | 
22 | RNA1{[moe](C)[sp].[moe](G)[sp].[moe](C)[sp].d(A)[sp].d(G)[sp].d(T)[sp].d(A)[sp].d(T)[sp].d(G)[sp].d(G)[sp].d(A)[sp].d(T)[sp].d(C)[sp].[cEt](G)[sp].[cEt](G)[sp].[cEt](C)}$$$$V2.0 | 85% and 84% | target mRNA inhibition (HepG2, 0.0092593 µM): 0%; target mRNA inhibition (HepG2, 0.0277778 µM): 50%; target mRNA inhibition (HepG2, 0.0833333 µM): 74%; target mRNA inhibition (HepG2, 0.25 µM): 81%
23 | RNA1{[moe](C)[sp].[moe](G)[sp].[moe](G)[sp].[moe](G)[sp].[moe](C)[sp].d(A)[sp].d(A)[sp].d(C)[sp].d(A)[sp].d(T)[sp].d(A)[sp].d(C)[sp].d(C)[sp].d(T)[sp].[moe](T)[sp].[moe](G)}$$$$V2.0 | 54% and 53% | 
24 | RNA1{[moe](C)[sp].[moe](G)[sp].[moe](T)[sp].[moe](G)[sp].[moe](C)[sp].d(A)[sp].d(G)[sp].d(A)[sp].d(G)[sp].d(G)[sp].d(T)[sp].d(G)[sp].d(A)[sp].d(A)[sp].[moe](G)[sp].[moe](C)}$$$$V2.0 | 59% and 51% | 
25 | RNA1{[moe](C)[sp].[moe](G)[sp].d(C)[sp].d(A)[sp].d(G)[sp].d(T)[sp].d(A)[sp].d(T)[sp].d(G)[sp].d(G)[sp].d(A)[sp].[moe](T)[sp].[moe](C)[sp].[moe](G)[sp].[moe](G)[sp].[moe](C)[sp].[moe](A)}$$$$V2.0 | 82% and 80% | 
26 | RNA1{[moe](C)[sp].[moe](G)[sp].d(T)[sp].d(G)[sp].d(C)[sp].d(A)[sp].d(G)[sp].d(A)[sp].d(G)[sp].d(G)[sp].d(T)[sp].[moe](G)[sp].[moe](A)[sp].[moe](A)[sp].[moe](G)[sp].[moe](C)}$$$$V2.0 | 51% and 60% | 
27 | RNA1{[moe](C)[sp].[moe](T)[sp].[moe](A)[sp].[moe](G)[sp].[moe](T)[sp].d(A)[sp].d(A)[sp].d(A)[sp].d(C)[sp].d(T)[sp].d(G)[sp].d(A)[sp].d(G)[sp].d(C)[sp].[moe](C)[sp].[moe](A)}$$$$V2.0 | 71% and 63% | 
28 | RNA1{[moe](C)[sp].[moe](T)[sp].[moe](G)[sp].[moe](G)[sp].d(A)[sp].d(G)[sp].d(C)[sp].d(C)[sp].d(A)[sp].d(C)[sp].d(C)[sp].d(A)[sp].d(G)[sp].[moe](C)[sp].[moe](A)[sp].[moe](G)}$$$$V2.0 | 57% and 60% | 
29 | RNA1{[moe](C)[sp].[moe](T)[sp].[moe](G)[sp].d(G)[sp].d(A)[sp].d(G)[sp].d(C)[sp].d(C)[sp].d(A)[sp].d(C)[sp].d(C)[sp].d(A)[sp].[moe](G)[sp].[moe](C)[sp].[moe](A)[sp].[moe](G)}$$$$V2.0 | 42% and 38% | 
30 | RNA1{[moe](C)[sp].[moe](T)[sp].[moe](G)[sp].d(G)[sp].d(A)[sp].d(G)[sp].d(C)[sp].d(C)[sp].d(A)[sp].d(C)[sp].d(C)[sp].d(A)[sp].d(G)[sp].[cEt](C)[sp].[cEt](A)[sp].[cEt](G)}$$$$V2.0 | 60% | 
31 | RNA1{[moe](C)[sp].[moe](T)[sp].d(G)[sp].d(G)[sp].d(A)[sp].d(G)[sp].d(C)[sp].d(C)[sp].d(A)[sp].d(C)[sp].d(C)[sp].[moe](A)[sp].[moe](G)[sp].[moe](C)[sp].[moe](A)[sp].[moe](G)[sp].[moe](G)}$$$$V2.0 | 66% and 64% | 
